According to PubChem BioAssay (NCI):
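A five-concentration, 48-hour dose response in 96-well plates underlies each endpoint, interpolated linearly between surrounding concentrations. The concentration for 50% growth inhibition is given as GI50. TGI marks complete inhibition of growth.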

How the values were obtained:
Assay in all cases: NCI tumour cell line growth inhibition, 48 h
[1] = test system: 786-0 renal
[2] = test system: A549 NSCLC
[3] = test system: HOP-92 NSCLC
[4] = test system: K-562 leukemia
[5] = test system: NCI-H460 lung
[6] = test system: RPMI-8226 leukemia
[7] = test system: SF-268 CNS
[8] = test system: SF-295 CNS
[9] = test system: SNB-19 CNS
[10] = test system: SW-620 colon

Row | SMILES | GI50 [1] | TGI [1] | GI50 [2] | TGI [2] | GI50 [3] | TGI [3] | GI50 [4] | TGI [4] | GI50 [5] | TGI [5] | GI50 [6] | TGI [6] | GI50 [7] | TGI [7] | GI50 [8] | TGI [8] | GI50 [9] | TGI [9] | GI50 [10] | TGI [10]
1 | COc1cccc(OC(=O)c2ccc(C(F)(F)F)nc2Nc2cc(Cl)ccc2C)c1 | 10.7 µM | 24.5 µM | 6.1 µM | > 100 µM | 1.63 µM | 6.98 µM | 3.13 µM | 9.36 µM | 2.92 µM | 15.4 µM | 4.2 µM | 23.2 µM | 4.38 µM | > 100 µM | 23.9 µM | 48.2 µM | > 100 µM | > 100 µM | 5.31 µM | 50.7 µM
2 | CC(=O)Nc1ccc(SC#N)c2c(NC(C)=O)cccc12 |  | > 100 µM |  | > 100 µM |  | > 94.8 µM |  | > 100 µM |  | > 100 µM |  | 73.9 µM |  | > 100 µM |  | > 100 µM |  | > 100 µM |  | > 100 µM
3 | COc1ccccc1-c1cc(=O)c2cc(C)cnc2[nH]1 | 41.4 µM | > 100 µM |  | > 100 µM |  | > 100 µM |  | 61.3 µM | 32.6 µM | > 100 µM |  | > 100 µM |  | > 100 µM | 31.1 µM | > 100 µM |  | > 100 µM |  | > 100 µM
4 | O=C1c2ccccc2-c2cc([N+](=O)[O-])c([N+](=O)[O-])cc21 |  | 5.86 µM |  | 6.23 µM |  | 3.2 µM |  | 8.04 µM |  | 3.06 µM |  | 6.23 µM |  | 5.13 µM |  | 3.08 µM |  | 3.36 µM |  | > 21.1 µM
5 | NNC(=O)CS(=O)(=O)Nc1ncccn1 |  | > 100 µM |  | > 100 µM |  | > 100 µM |  | > 100 µM |  | > 100 µM |  | > 100 µM |  | > 100 µM |  | > 100 µM |  | > 100 µM |  | > 100 µM
6 | O=C1c2c(c3c4ccccc4[nH]c3c3ccc4ccccc4c23)C(=O)N1CCN1CCNCC1 | 1.76 µM | 3.21 µM | 1.16 µM | 2.64 µM | 1.83 µM | 4.14 µM | 1.44 µM | 3.09 µM | 1.1 µM | 2.6 µM | 1.81 µM | 4.1 µM | 1.86 µM | 4.03 µM | 1.85 µM | 3.42 µM | 1.6 µM | 2.99 µM | 1.49 µM | 3.16 µM
7 | Cc1cc(S(=O)(=O)/N=C(/N)Nc2ccccc2O)c(SCc2ccccc2)cc1Cl | 18.6 µM | 35 µM | 10.2 µM | 32.1 µM | 15.3 µM | 35.6 µM | 10.2 µM | > 100 µM | 7.64 µM | 50.7 µM | 11.4 µM | 52.3 µM | 13.4 µM | 45.4 µM | 19 µM | 39.5 µM | 16.6 µM | 34 µM | 22.1 µM | 56.4 µM
8 | COc1ccc(-c2nc(Nc3cc(C)[nH]n3)c3ccccc3n2)cc1 | 1.27 µM | > 31.3 µM | 2.33 µM | 44.9 µM | 0.621 µM | 3.77 µM | 3.25 µM | > 100 µM | 3.1 µM | > 100 µM | 4.16 µM | 28.6 µM | 2.42 µM | > 59.4 µM | 2.61 µM | > 71.4 µM | 2.88 µM | > 100 µM | 2.14 µM | > 100 µM
9 | CC(C)C[C@H](NC(=O)CNC(=O)c1cc(Cl)ccc1Cl)B1OC(=O)CC(CC(=O)O)(C(=O)O)O1 (some centres not stated) | 0.0655 µM |  | 0.11 µM | 20.6 µM | 0.0219 µM | 0.173 µM | 0.074 µM | > 100 µM | 0.231 µM |  | 0.0321 µM |  | 0.0723 µM | 2.43 µM | 0.071 µM | 1.14 µM | 0.209 µM | > 100 µM | 0.0364 µM | 
10 | COc1cc(C(=O)C/C(CCC(=O)Nc2ccccc2[N+](=O)[O-])=N\NC(N)=O)ccc1O |  | > 100 µM |  | > 100 µM |  | > 100 µM |  | > 100 µM |  | > 100 µM |  | > 100 µM |  | > 100 µM |  | > 100 µM |  | > 100 µM |  | > 100 µM
11 | CCc1ccc2c(c1)N(CCO)C1=C(C(=O)OC1)C2c1cccc(Br)c1 (configuration not stated) | 0.617 µM | 14.7 µM | 0.655 µM | 14.8 µM | 3.15 µM | 21.5 µM | 0.368 µM | 14.7 µM | 0.397 µM | 11.9 µM | 0.983 µM | 33.5 µM | 0.722 µM | 15.9 µM | 0.374 µM | 13.2 µM | 0.806 µM | 18.4 µM | 0.35 µM | 18.7 µM
12 | O=C1c2cccnc2C(=O)c2c1c(C(=O)NCCCN1CCCCC1)c1ccccn21 | 1.18 µM | 8.06 µM | 1.25 µM | 3.8 µM | 2.33 µM | 4.9 µM | 1.22 µM | > 100 µM | 0.299 µM | 1.46 µM | 3.43 µM | > 100 µM | 1.25 µM | 8.3 µM | 0.845 µM | 8.45 µM | 1.12 µM | 2.57 µM | 0.471 µM | 2.14 µM
13 | CC1(O)C=CC(=O)C=C1 |  | 49.6 µM |  | > 100 µM |  | > 100 µM |  | > 100 µM |  | 44.9 µM |  | > 100 µM |  | 29.2 µM |  | > 100 µM |  | 70.3 µM |  | > 100 µM
14 | CN(C)CCCn1c(=O)c2ccccc2c2ccccc21 | 12.5 µM | > 100 µM | 6.63 µM | 49.5 µM | 17.9 µM | 67.2 µM | 21.8 µM | > 100 µM | 7.55 µM | 25.8 µM | 26.9 µM | 77.7 µM | 15.6 µM | 41.4 µM | 7.69 µM | 32.8 µM | 23.3 µM | > 100 µM | 6.27 µM | 53.3 µM
15 | O=C(/C=C/c1cc2ccccc2[nH]c1=O)/C=C/c1cc2ccccc2[nH]c1=O |  | > 26.1 µM |  | > 59.2 µM | > 100 µM | > 100 µM | > 23.1 µM | > 100 µM | 32.3 µM | > 100 µM | 4.02 µM | > 40.1 µM | 18 µM | 99.7 µM | > 25.3 µM | > 86.2 µM | 21.1 µM | > 100 µM | 6.34 µM | 14.8 µM
16 | COC(=O)C1CC2CC(=NNC(N)=O)CC2C1 (configuration not stated) |  | > 100 µM |  | > 100 µM |  | > 100 µM |  | > 100 µM |  | > 100 µM |  | > 100 µM |  | > 100 µM |  | > 100 µM |  | > 100 µM |  | > 100 µM
17 | CCOC(=O)C1=C(C)N(c2ccc(Cl)cc2)[C@]2(C#N)C(O)=C(Cl)C(Cl)=C(O)[C@]12C#N | > 100 µM | > 100 µM | > 100 µM | > 100 µM | 78.2 µM | > 100 µM | 21.5 µM | > 100 µM | > 100 µM | > 100 µM | 48.6 µM | > 100 µM | > 100 µM | > 100 µM | > 100 µM | > 100 µM | > 100 µM | > 100 µM | 66.3 µM | > 100 µM
18 | C1CCC([PH+](C2CCCCC2)C2CCCCC2[PH+](C2CCCCC2)C2CCCCC2)CC1.[Au].[CH-]1CCCCC1CC1CCCC[N-]1 (configuration not stated) | 0.518 µM | 2.02 µM | 0.241 µM | 3.03 µM | 0.212 µM | 0.714 µM | 0.246 µM | > 100 µM | 0.303 µM | 1.09 µM | 0.186 µM | 0.944 µM | 0.405 µM | 2.11 µM | 0.305 µM | 1.28 µM | 0.327 µM | 1.46 µM | 0.371 µM | 1.41 µM
